# Reference: patent US10392422B2, “Macrocyclic broad spectrum antibiotics” (priority 2014, dated 2019)
# Like-named read-outs stand apart in the source and are kept apart here.
# Key:
# Assay in all cases: MIC, broth micro-dilution technique (CLSI)
# [1] = test system: Escherichia coli MC4100 harboring the IMP4213; type: cell-based; details: 35° C., 22 hours; for MIC: Escherichia coli, 22 h; for MIC (μg/mL) E. coli: Table 2 modified protocol: serial 2-fold dilutions starting from 4 μg/mL
# In short: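 Cation-adjusted MHB + 0.002% Tween-80; 10-point 2-fold series starting 64 μg/ml (modified protocol: 4 μg/mL). Final inoculum OD600 0.0005; 35° C, 22 h. MIC per CLSI M07-A8 broth microdilution.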
# [2] = test system: Methicillin Resistant Staphylococcus aureus strain USA 300 (NRS384); type: cell-based; details: for MIC: Staphylococcus aureus, 22 h, read-out: MIC (μg/mL) S. aureus
# In short: (§1)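 CLSI broth microdilution in cation-adjusted Mueller Hinton broth with 0.002% v/v Tween-80. Compounds were serially 2-fold diluted over 10 concentrations from 64 μg/ml, or from 4 μg/mL in a modified protocol; inoculum at final OD600 0.0005, incubated 35° C for 22 hours.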
# MRSA COL (NRS100) = type: cell-based, Staphylococcus aureus; details: for MIC: Staphylococcus aureus, 22 h, read-out: MIC (μg/mL) (COL)
# In short: as §1
# [3] = read-out: MIC (μg/mL) E. coli, Table 1 protocol: serial 2-fold dilutions starting from 64 μg/ml
# [4] = Table 1 protocol: serial 2-fold dilutions starting from 64 μg/ml, 35° C., 22 hours
# [5] = read-out: MIC (μg/mL) E. coli, Table 2 modified protocol: serial 2-fold dilutions starting from 4 μg/mL
# [6] = Table 2 modified protocol: serial 2-fold dilutions starting from 4 μg/mL, 35° C., 22 hours
compound,measurement,setting,value
C[C@@H]1NC(=O)[C@@H](N(C)C(=O)[C@H](CCCCN)NC(=O)c2ccc(-c3ccc(Cl)cc3)cc2)c2ccc(O)c(c2)-c2cc(ccc2O)C[C@@H](C(=O)NC/C=C/S(C)(=O)=O)NC1=O [Compound 236],MIC,[1]; [3],> 64 µg/mL
same,MIC,[2],48 µg/mL
same,MIC,MRSA COL (NRS100),8 µg/mL
Cc1nc(C(=O)[C@H](C)NC(=O)[C@@H]2Cc3ccc(O)c(c3)-c3cc(ccc3O)[C@H](N(C)C(=O)[C@H](CCCCN)NC(=O)c3ccc(-c4ccc(Cl)cc4)cc3)C(=O)N[C@@H](C)C(=O)N2)no1 [Compound 237],MIC,[1]; [3],8 µg/mL
same,MIC,[2]; [4],12 µg/mL
same,MIC,MRSA COL (NRS100); [4],4 µg/mL
CNC(=O)C(=O)CNC(=O)[C@@H]1Cc2ccc(O)c(c2)-c2cc(ccc2O)[C@H](N(C)C(=O)[C@H](CCCCN)NC(=O)c2ccc(-c3ccc(Cl)cc3)cc2)C(=O)N[C@@H](C)C(=O)N1 [Compound 238],MIC,[1]; [3],64 µg/mL
same,MIC,[2]; [4],32 µg/mL
same,MIC,MRSA COL (NRS100); [4],8 µg/mL
C[C@@H]1NC(=O)[C@@H](N(C)C(=O)[C@H](CCCCN)NC(=O)c2ccc(-c3ccc(Cl)cc3)cc2)c2ccc(O)c(c2)-c2cc(ccc2O)C[C@@H](C(=O)NCC(=O)C(=O)O)NC1=O [Compound 239],MIC,[1]; [3],> 4 µg/mL
same,MIC,[2]; [4],> 4 µg/mL
same,MIC,MRSA COL (NRS100); [4],4 µg/mL
C[C@H](NC(=O)[C@@H]1Cc2ccc(O)c(c2)-c2cc(ccc2O)[C@H](N(C)C(=O)[C@H](CCCCN)NC(=O)c2ccc(-c3ccc(Cl)cc3)cc2)C(=O)N[C@@H](C)C(=O)N1)C(=O)CNC=O [Compound 240],MIC,[1]; [3],48 µg/mL
same,MIC,[2]; [4],4 µg/mL
same,MIC,MRSA COL (NRS100); [4],2 µg/mL
C[C@H](NC(=O)[C@@H]1Cc2ccc(O)c(c2)-c2cc(ccc2O)[C@H](N(C)C(=O)[C@H](CCCCN)NC(=O)c2ccc(-c3ccc(Cl)cc3)cc2)C(=O)N[C@@H](C)C(=O)N1)C(=O)Cn1ccnn1 [Compound 241],MIC,[1]; [3],16 µg/mL
same,MIC,[2]; [4],4 µg/mL
same,MIC,MRSA COL (NRS100); [4],1.5 µg/mL
C[C@@H]1NC(=O)[C@@H](N(C)C(=O)[C@H](CCCCN)NC(=O)c2ccc(-c3ccc(Cl)cc3)cc2)c2ccc(O)c(c2)-c2cc(ccc2O)C[C@@H](C(=O)N[C@@H](C)C(=O)C(=O)Nc2cn[nH]c2)NC1=O [Compound 242],MIC,[1]; [5],> 4 µg/mL
same,MIC,[2]; [6],> 4 µg/mL
same,MIC,MRSA COL (NRS100); [6],4 µg/mL
C[C@@H]1NC(=O)[C@@H](N(C)C(=O)[C@H](CCCCN)NC(=O)c2ccc(-c3ccc(Cl)cc3)cc2)c2ccc(O)c(c2)-c2cc(ccc2O)C[C@@H](C(=O)N[C@@H](C)C(=O)N(CCO)CC(N)=O)NC1=O [Compound 243],MIC,[1]; [5],> 4 µg/mL
same,MIC,[2]; [6],> 4 µg/mL
same,MIC,MRSA COL (NRS100); [6],> 4 µg/mL
C[C@@H]1NC(=O)[C@@H](N(C)C(=O)[C@H](CCCCN)NC(=O)c2ccc(-c3ccc(Cl)cc3)cc2)c2ccc(O)c(c2)-c2cc(ccc2O)C[C@@H](C(=O)NCC(=O)c2nnn[nH]2)NC1=O [Compound 244],MIC,[1]; [5],> 4 µg/mL
same,MIC,[2]; [6],> 4 µg/mL
same,MIC,MRSA COL (NRS100); [6],4 µg/mL
C[C@@H]1NC(=O)[C@@H](N(C)C(=O)[C@H](CCCCN)NC(=O)c2ccc(-c3ccc(Cl)cc3)cc2)c2ccc(O)c(c2)-c2cc(ccc2O)C[C@@H](C(=O)NCC(=O)c2ncc[nH]2)NC1=O [Compound 245],MIC,[1]; [5],> 4 µg/mL
same,MIC,[2]; [6],4 µg/mL
same,MIC,MRSA COL (NRS100); [6],2 µg/mL
CC(NC(=O)[C@@H]1Cc2ccc(O)c(c2)-c2cc(ccc2O)[C@H](N(C)C(=O)[C@H](CCCCN)NC(=O)c2ccc(-c3ccc(Cl)cc3)cc2)C(=O)N[C@@H](C)C(=O)N1)C(=O)Cn1cc(C(N)=O)nn1 (stereo partly drawn) [Compound 246],MIC,[1]; [5],> 4 µg/mL
same,MIC,[2]; [6],4 µg/mL
same,MIC,MRSA COL (NRS100); [6],3 µg/mL
C[C@H](NC(=O)[C@@H]1Cc2ccc(O)c(c2)-c2cc(ccc2O)[C@H](N(C)C(=O)[C@H](CCCCN)NC(=O)c2ccc(-c3ccc(Cl)cc3)cc2)C(=O)N[C@@H](C)C(=O)N1)C(=O)CF [Compound 247],MIC,[1]; [5],> 4 µg/mL
same,MIC,[2]; [6],2 µg/mL
same,MIC,MRSA COL (NRS100); [6],1 µg/mL
CCOS(=O)(=O)/C=C/[C@H](C)NC(=O)[C@@H]1Cc2ccc(O)c(c2)-c2cc(ccc2O)[C@H](N(C)C(=O)[C@H](CCCCN)NC(=O)c2ccc(-c3ccc(Cl)cc3)cc2)C(=O)N[C@@H](C)C(=O)N1 [Compound 248],MIC,[1]; [3],> 64 µg/mL
same,MIC,[2],21 µg/mL
same,MIC,MRSA COL (NRS100),4 µg/mL
C[C@@H]1NC(=O)[C@@H](N(C)C(=O)[C@H](CCCCN)NC(=O)c2ccc(-c3ccc(Cl)cc3)cc2)c2ccc(O)c(c2)-c2cc(ccc2O)C[C@@H](C(=O)N[C@@H](C)/C=C/S(N)(=O)=O)NC1=O [Compound 249],MIC,[1]; [3],48 µg/mL
same,MIC,[2],32 µg/mL
same,MIC,MRSA COL (NRS100),16 µg/mL
C[C@@H]1NC(=O)[C@@H](N(C)C(=O)[C@H](CCCCN)NC(=O)c2ccc(-c3ccc(Cl)cc3)cc2)c2ccc(O)c(c2)-c2cc(ccc2O)C[C@@H](C(=O)N[C@@H](C)C(=O)c2ccccn2)NC1=O [Compound 250],MIC,[1]; [3],64 µg/mL
same,MIC,[2]; [4],64 µg/mL
same,MIC,MRSA COL (NRS100); [4],11 µg/mL
COC(=O)/C=C/[C@H](C)NC(=O)[C@@H]1Cc2ccc(O)c(c2)-c2cc(ccc2O)[C@H](N(C)C(=O)[C@H](CCCCN)NC(=O)c2ccc(-c3ccc(Cl)cc3)cc2)C(=O)N[C@@H](C)C(=O)N1 [Compound 251],MIC,[1]; [3],> 64 µg/mL
same,MIC,[2],64 µg/mL
same,MIC,MRSA COL (NRS100),16 µg/mL
C[C@@H]1NC(=O)[C@@H](N(C)C(=O)[C@H](CCCCN)NC(=O)c2ccc(-c3ccc(Cl)cc3)cc2)c2ccc(O)c(c2)-c2cc(ccc2O)C[C@@H](C(=O)NCC(=O)C2CO2)NC1=O (stereo partly drawn) [Compound 252],MIC,[1]; [5],> 4 µg/mL
same,MIC,[2]; [6],> 4 µg/mL
same,MIC,MRSA COL (NRS100); [6],> 4 µg/mL
C[C@@H]1NC(=O)[C@@H](N(C)C(=O)[C@H](CCCCN)NC(=O)c2ccc(-c3ccc(Cl)cc3)cc2)c2ccc(O)c(c2)-c2cc(ccc2O)C[C@@H](C(=O)NCC(=O)CF)NC1=O [Compound 253],MIC,[1]; [5],> 4 µg/mL
same,MIC,[2]; [6],> 4 µg/mL
same,MIC,MRSA COL (NRS100); [6],4 µg/mL
CC(=O)OCC(=O)CNC(=O)[C@@H]1Cc2ccc(O)c(c2)-c2cc(ccc2O)[C@H](N(C)C(=O)[C@H](CCCCN)NC(=O)c2ccc(-c3ccc(Cl)cc3)cc2)C(=O)N[C@@H](C)C(=O)N1 [Compound 254],MIC,[1]; [5],> 4 µg/mL
same,MIC,[2]; [6],4 µg/mL
same,MIC,MRSA COL (NRS100); [6],2 µg/mL
C[C@H](NC(=O)[C@@H]1Cc2ccc(O)c(c2)-c2cc(ccc2O)[C@H](N(C)C(=O)[C@H](CCCCN)NC(=O)c2ccc(-c3ccc(Cl)cc3)cc2)C(=O)N[C@@H](C)C(=O)N1)C(=O)CN=[N+]=[N-] [Compound 255],MIC,[1]; [3],> 64 µg/mL
same,MIC,[2],12 µg/mL
same,MIC,MRSA COL (NRS100),3 µg/mL
CCCCCCCCCCS(=O)(=O)N[C@@H](CCCCN)C(=O)N(C)[C@@H]1C(=O)N[C@@H](C)C(=O)N[C@H](C(=O)N[C@@H](C)C(C)=O)Cc2ccc(OCCN)c(c2)-c2cc1ccc2OCCN.O=CO [Compound 256],MIC (μg/mL) E. coli,[1],>4 µg/mL
same,MIC (μg/mL) S. aureus,[2]; [6],0.063 µg/mL
same,MIC (μg/mL) (COL),MRSA COL (NRS100); [6],0.016 µg/mL
CCCCCCCCCCS(=O)(=O)N[C@@H](CCCCN)C(=O)N(C)[C@@H]1C(=O)N[C@@H](C)C(=O)N[C@H](C(=O)N[C@@H](C)C(=O)c2nnn[nH]2)Cc2ccc(OCCN)c(c2)-c2cc1ccc2OCCN.O=CO [Compound 258],MIC (μg/mL) E. coli,[1],4 µg/mL
same,MIC (μg/mL) S. aureus,[2]; [6],0.047 µg/mL
same,MIC (μg/mL) (COL),MRSA COL (NRS100); [6],0.012 µg/mL
CCCCCCCCS(=O)(=O)N[C@@H](CO)C(=O)N(C)[C@@H]1C(=O)N[C@@H](C)C(=O)N[C@H](C(=O)N[C@@H](C)C(C)=O)Cc2ccc(OCCN)c(c2)-c2cc1ccc2OCCN.O=CO [Compound 259],MIC (μg/mL) E. coli,[1],>4 µg/mL
same,MIC (μg/mL) S. aureus,[2]; [6],0.75 µg/mL
same,MIC (μg/mL) (COL),MRSA COL (NRS100); [6],0.38 µg/mL
CCCCCCCCCC(=O)N[C@@H](CCSC)C(=O)N(C)[C@@H]1C(=O)N[C@@H](C)C(=O)N[C@H](C(=O)N[C@@H](C)C(C)=O)Cc2ccc(OCCN)c(c2)-c2cc1ccc2OCCN.O=CO [Compound 261],MIC (μg/mL) E. coli,[1],>4 µg/mL
same,MIC (μg/mL) S. aureus,[2]; [6],1.5 µg/mL
same,MIC (μg/mL) (COL),MRSA COL (NRS100); [6],0.38 µg/mL
CCCCCCCCCC(=O)N[C@@H](CC[S+](C)[O-])C(=O)N(C)[C@@H]1C(=O)N[C@@H](C)C(=O)N[C@H](C(=O)N[C@@H](C)C(C)=O)Cc2ccc(OCCN)c(c2)-c2cc1ccc2OCCN (stereo partly drawn) [Compound 262],MIC (μg/mL) E. coli,[1],>4 µg/mL
same,MIC (μg/mL) S. aureus,[2]; [6],>4 µg/mL
same,MIC (μg/mL) (COL),MRSA COL (NRS100); [6],2 µg/mL
CCCCCCCCCC(=O)N[C@@H](CO)C(=O)N(C)[C@@H]1C(=O)N[C@@H](C)C(=O)N[C@H](C(=O)N[C@@H](C)C(C)=O)Cc2ccc(OCCN)c(c2)-c2cc1ccc2OCCN.O=CO [Compound 264],MIC (μg/mL) E. coli,[1],>4 µg/mL
same,MIC (μg/mL) S. aureus,[2]; [6],2 µg/mL
same,MIC (μg/mL) (COL),MRSA COL (NRS100); [6],0.75 µg/mL
CCCCCCCCCC(=O)N[C@@H](CO)C(=O)N(C)[C@@H]1C(=O)N[C@@H](C)C(=O)N[C@H](C(=O)N[C@@H](C)C(=O)c2nnn[nH]2)Cc2ccc(OCCN)c(c2)-c2cc1ccc2OCCN.O=CO [Compound 265],MIC (μg/mL) E. coli,[1],4 µg/mL
same,MIC (μg/mL) S. aureus,[2]; [6],1 µg/mL
same,MIC (μg/mL) (COL),MRSA COL (NRS100); [6],0.25 µg/mL
CCCCCCCCCC(=O)N[C@@H](CC(N)=O)C(=O)N(C)[C@@H]1C(=O)N[C@@H](C)C(=O)N[C@H](C(=O)N[C@@H](C)C(C)=O)Cc2ccc(OCCN)c(c2)-c2cc1ccc2OCCN.O=CO [Compound 266],MIC (μg/mL) E. coli,[1],>4 µg/mL
same,MIC (μg/mL) S. aureus,[2]; [6],4 µg/mL
same,MIC (μg/mL) (COL),MRSA COL (NRS100); [6],1.5 µg/mL
